Measured values as given in patent publication US7700782B2, “Compounds 569” (AstraZeneca AB, priority 2007, dated 2010).
Counter-ions that a name gives are not always drawn.

What follows are molecules tested against T1, Adrenergic β2 (Homo sapiens, UniProt P07550) (assay: Adrenergic β2 mediated cAMP production in H292 cells (AlphaScreen cAMP detection)). Settings: Intrinsic Activity, fraction relative to the maximum activity determined for formoterol.
T1 construct: Adherent H292 cells were removed from tissue culture flasks; endogenous in cells; host or cells: H292 cells
T1 sequence (P07550 whole entry): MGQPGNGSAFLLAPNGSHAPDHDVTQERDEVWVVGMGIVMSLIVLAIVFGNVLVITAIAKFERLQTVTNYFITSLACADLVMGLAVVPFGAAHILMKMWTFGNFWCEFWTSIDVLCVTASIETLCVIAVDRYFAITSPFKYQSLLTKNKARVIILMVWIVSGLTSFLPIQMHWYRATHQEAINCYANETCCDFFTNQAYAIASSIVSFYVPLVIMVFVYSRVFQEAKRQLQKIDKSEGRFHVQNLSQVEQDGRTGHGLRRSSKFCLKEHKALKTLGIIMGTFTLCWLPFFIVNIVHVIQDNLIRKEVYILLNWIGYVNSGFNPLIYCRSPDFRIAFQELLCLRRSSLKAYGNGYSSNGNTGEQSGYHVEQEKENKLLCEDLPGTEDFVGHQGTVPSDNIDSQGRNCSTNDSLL
Format: cell-based
Method: Adrenergic β2 Mediated cAMP Production
H292 cells were grown in 225 cm2 flasks incubator at 37° C., 5% CO2 in RPMI medium containing, 10% (v/v) FBS (foetal bovine serum) and 2 mM L-glutamine.
Adherent H292 cells were removed from tissue culture flasks by treatment with Accutase™ cell detachment solution for 15 minutes. Flasks were incubated for 15 minutes in a humidified incubator at 37° C., 5% CO2. Detached cells were re-suspended in RPMI media (containing 10% (v/v) FBS and 2 mM L-glutamine) at 0.05×10^6 cells per mL. 5000 cells in 100 μL were added to each well of a tissue-culture-treated 96-well plate and the cells incubated overnight in a humidified incubator at 37° C., 5% CO2. The culture media was removed and cells were washed twice with 100 μL assay buffer and replaced with 50 μL assay buffer (HBSS solution containing 10 mM HEPES pH 7.4 and 5 mM glucose). Cells were rested at room temperature for 20 minutes after which time 25 μL of rolipram (1.2 mM made up in assay buffer containing 2.4% (v/v) dimethylsulphoxide) was added. Cells were incubated with rolipram for 10 minutes after which time test compounds were added and the cells were incubated for 60 minutes at room temperature. The final rolipram concentration in the assay was 300 μM and final vehicle concentration was 1.6% (v/v) dimethylsulphoxide. The reaction was stopped by removing supernatants, washing once with 100 μL assay buffer and replacing with 50 μL lysis buffer. The cell monolayer was frozen at −80° C. for 30 minutes (or overnight).
The concentration of cAMP (cyclic adenosine monophosphate) in the cell lysate was determined using AlphaScreen™ methodology. The frozen cell plate was thawed for 20 minutes on a plate shaker then 10 μL of the cell lysate was transferred to a 96-well white plate. 40 μL of mixed AlphaScreen™ detection beads pre-incubated with biotinylated cAMP, was added to each well and the plate incubated at room temperature for 10 hours in the dark. The AlphaScreen™ signal was measured using an EnVision spectrophotometer (Perkin-Elmer Inc.) with the recommended manufacturer's settings. cAMP concentrations were determined by reference to a calibration curve determined in the same experiment using standard cAMP concentrations. Concentration response curves for agonists were constructed and data was fitted to a four parameter logistic equation to determine both the pEC50 and Intrinsic Activity. Intrinsic Activity was expressed as a fraction relative to the maximum activity determined for formoterol in each experiment.
For CC(C)N(CCNCCc1ccc(O)c2[nH]c(=O)sc12)C(=O)CCNCCc1ccccc1 [Example 1, N-(2-{[2-(4-Hydroxy-2-oxo-2,3-dihydro-1,3-benzothiazol-7-yl)ethyl]amino}ethyl)-N-isopropyl-N^3-(2-phenylethyl)-β-alaninamide bis-trifluoroacetic acid salt], the “β2 Int Act” value was 0.78.
CC(C)N(CCNCCc1ccc(O)c2[nH]c(=O)sc12)C(=O)CCNCCc1ccc(Cl)cc1 [Example 3, N^3-[2-(4-Chlorophenyl)ethyl]-N-(2-{[2-(4-hydroxy-2-oxo-2,3-dihydro-1,3-benzothiazol-7-yl)ethyl]amino}ethyl)-N-isopropyl-β-alaninamide bis-trifluoroacetic acid salt] was tested, and the “β2 Int Act” value was 0.34.
With O=C(CCNCCc1ccccc1)N(CCNCCc1ccc(O)c2[nH]c(=O)sc12)C1CCC(F)(F)CC1 [Example 4, N-(4,4-Difluorocyclohexyl)-N-(2-{[2-(4-hydroxy-2-oxo-2,3-dihydro-1,3-benzothiazol-7-yl)ethyl]amino}ethyl)-N^3-(2-phenylethyl)-β-alaninamide bis-trifluoroacetic acid salt] the “β2 Int Act” value was 0.79.
O=C(CCNCCc1ccccc1)N(CCNCCc1ccc(O)c2[nH]c(=O)sc12)C1CCCCC1 [Example 5, N-Cyclohexyl-N-(2-{[2-(4-hydroxy-2-oxo-2,3-dihydro-1,3-benzothiazol-7-yl)ethyl]amino}ethyl)-N^3-(2-phenylethyl)-β-alaninamide bis-trifluoroacetic acid salt] was tested, and the “β2 Int Act” value was 0.83.
With CC(C)(C)CN(CCNCCc1ccc(O)c2[nH]c(=O)sc12)C(=O)CCNCCc1ccccc1 [Example 6, N-(2,2-Dimethylpropyl)-N-(2-{[2-(4-hydroxy-2-oxo-2,3-dihydro-1,3-benzothiazol-7-yl)ethyl]amino}ethyl)-N^3-(2-phenylethyl)-β-alaninamide bis-trifluoroacetic acid salt] the “β2 Int Act” value was 0.89.
CC(C)(C)CN(CCNCCc1ccc(O)c2[nH]c(=O)sc12)C(=O)CCNCCc1cccc(Cl)c1 [Example 7, N^3-[2-(3-Chlorophenyl)ethyl]-N-(2,2-dimethylpropyl)-N-(2-{[2-(4-hydroxy-2-oxo-2,3-dihydro-1,3-benzothiazol-7-yl)ethyl]amino}ethyl)-β-alaninamide bis-trifluoroacetic acid salt] was tested, and the “β2 Int Act” value was 0.68.
In the case of CC(C)(C)CN(CCNCCc1ccc(O)c2[nH]c(=O)sc12)C(=O)CCNCCc1ccc(Cl)cc1 [Example 8, N^3-[2-(4-Chlorophenyl)ethyl]-N-(2,2-dimethylpropyl)-N-(2-{[2-(4-hydroxy-2-oxo-2,3-dihydro-1,3-benzothiazol-7-yl)ethyl]amino}ethyl)-β-alaninamide bis-trifluoroacetic acid salt], the “β2 Int Act” value is reported as 0.73.
In the case of CC(C)(C)CN(CCNCCc1ccc(O)c2[nH]c(=O)sc12)C(=O)CCNCCc1ccc(Cl)c(Cl)c1 [Example 9, N^3-[2-(3,4-Dichlorophenyl)ethyl]-N-(2,2-dimethylpropyl)-N-(2-{[2-(4-hydroxy-2-oxo-2,3-dihydro-1,3-benzothiazol-7-yl)ethyl]amino}ethyl)-β-alaninamide bis-trifluoroacetic acid salt], the “β2 Int Act” value is reported as 0.65.
In the case of Cc1cccc(CCNCCC(=O)N(CCNCCc2ccc(O)c3[nH]c(=O)sc23)CC(C)(C)C)c1 [Example 10, N-(2,2-Dimethylpropyl)-N-(2-{[2-(4-hydroxy-2-oxo-2,3-dihydro-1,3-benzothiazol-7-yl)ethyl]amino}ethyl)-N^3-[2-(3-methylphenyl)ethyl]-β-alaninamide bis-trifluoroacetic acid salt], the “β2 Int Act” value is reported as 0.69.
In the case of C[C@H](CNCCC(=O)N(CCNCCc1ccc(O)c2[nH]c(=O)sc12)CC(C)(C)C)c1ccccc1 [Example 11, N-(2,2-Dimethylpropyl)-N-(2-{[2-(4-hydroxy-2-oxo-2,3-dihydro-1,3-benzothiazol-7-yl)ethyl]amino}ethyl)-N^3-[(2S)-2-phenylpropyl]-β-alaninamide bis-trifluoroacetic acid salt], the “β2 Int Act” value is reported as 0.84.
In the case of O=C(CCNCCc1cccc(Cl)c1)N(CCNCCc1ccc(O)c2[nH]c(=O)sc12)C1CCCCC1 [Example 12, N^3-[2-(3-Chlorophenyl)ethyl]-N-cyclohexyl-N-(2-{[2-(4-hydroxy-2-oxo-2,3-dihydro-1,3-benzothiazol-7-yl)ethyl]amino}ethyl)-β-alaninamide bis-trifluoroacetic acid salt], the “β2 Int Act” value is reported as 0.87.
With O=C(CCNCCc1ccc(Cl)cc1)N(CCNCCc1ccc(O)c2[nH]c(=O)sc12)C1CCCCC1 [Example 13, N^3-[2-(4-Chlorophenyl)ethyl]-N-cyclohexyl-N-(2-{[2-(4-hydroxy-2-oxo-2,3-dihydro-1,3-benzothiazol-7-yl)ethyl]amino}ethyl)-β-alaninamide bis-trifluoroacetic acid salt] the “β2 Int Act” value was 0.71.
With Cc1cccc(CCNCCC(=O)N(CCNCCc2ccc(O)c3[nH]c(=O)sc23)C2CCCCC2)c1 [Example 14, N-Cyclohexyl-N-(2-{[2-(4-hydroxy-2-oxo-2,3-dihydro-1,3-benzothiazol-7-yl)ethyl]amino}ethyl)-N^3-[2-(3-methylphenyl)ethyl]-β-alaninamide bis-trifluoroacetic acid salt] the “β2 Int Act” value was 0.84.
In the case of O=C(CCNCCc1ccc(F)cc1)N(CCNCCc1ccc(O)c2[nH]c(=O)sc12)C1CCCCC1 [Example 16, N-Cyclohexyl-N^3-[2-(4-fluorophenyl)ethyl]-N-(2-{[2-(4-hydroxy-2-oxo-2,3-dihydro-1,3-benzothiazol-7-yl)ethyl]amino}ethyl)-β-alaninamide bis-trifluoroacetic acid salt], the “β2 Int Act” value is reported as 0.91.
For O=C(CCNCCc1ccccc1Cl)N(CCNCCc1ccc(O)c2[nH]c(=O)sc12)C1CCCCC1 [Example 17, N^3-[2-(2-Chlorophenyl)ethyl]-N-cyclohexyl-N-(2-{[2-(4-hydroxy-2-oxo-2,3-dihydro-1,3-benzothiazol-7-yl)ethyl]amino}ethyl)-β-alaninamide bis-trifluoroacetic salt], the “β2 Int Act” value was 0.90.
In the case of C[C@H](CNCCC(=O)N(CCNCCc1ccc(O)c2[nH]c(=O)sc12)C1CCCCC1)c1ccccc1 [Example 18, N-Cyclohexyl-N-(2-{[2-(4-hydroxy-2-oxo-2,3-dihydro-1,3-benzothiazol-7-yl)ethyl]amino}ethyl)-N^3-[(2S)-2-phenylpropyl]-β-alaninamide bis-trifluoroacetic acid salt], the “β2 Int Act” value is reported as 0.89.
In the case of CC(C)(Cc1ccccc1)NCCC(=O)N(CCNCCc1ccc(O)c2[nH]c(=O)sc12)C1CCCCC1 [Example 19, N-Cyclohexyl-N^3-(1,1-dimethyl-2-phenylethyl)-N-(2-{[2-(4-hydroxy-2-oxo-2,3-dihydro-1,3-benzothiazol-7-yl)ethyl]amino}ethyl)-β-alaninamide bis-trifluoroacetic acid salt], the “β2 Int Act” value is reported as 0.70.
With C[C@@H](CNCCC(=O)N(CCNCCc1ccc(O)c2[nH]c(=O)sc12)C1CCCCC1)c1ccccc1 [Example 20, N-Cyclohexyl-N-(2-{[2-(4-hydroxy-2-oxo-2,3-dihydro-1,3-benzothiazol-7-yl)ethyl]amino}ethyl)-N^3-[(2R)-2-phenylpropyl]-β-alaninamide bis-trifluoroacetic acid salt] the “β2 Int Act” value was 0.97.
In the case of CC(C)(CNCCC(=O)N(CCNCCc1ccc(O)c2[nH]c(=O)sc12)C1CCCCC1)c1ccccc1 [Example 21, N-Cyclohexyl-N-(2-{[2-(4-hydroxy-2-oxo-2,3-dihydro-1,3-benzothiazol-7-yl)ethyl]amino}ethyl)-N^3-(2-methyl-2-phenylpropyl)-β-alaninamide bis-trifluoroacetic acid salt], the “β2 Int Act” value is reported as 0.85.
O=C(CCNCCc1cccc(Cl)c1)N(CCNCCc1ccc(O)c2[nH]c(=O)sc12)C1CCOCC1 [Example 22, N^3-[2-(3-Chlorophenyl)ethyl]-N-(2-{[2-(4-hydroxy-2-oxo-2,3-dihydro-1,3-benzothiazol-7-yl)ethyl]amino}ethyl)-N-(tetrahydro-2H-pyran-4-yl)-β-alaninamide bis-trifluoroacetic acid salt] was tested, and the “β2 Int Act” value was 0.96.
For O=C(CCNCCc1ccccc1)N(CCNCCc1ccc(O)c2[nH]c(=O)sc12)C1CCCCCC1 [Example 23, N-Cycloheptyl-N-(2-{[2-(4-hydroxy-2-oxo-2,3-dihydro-1,3-benzothiazol-7-yl)ethyl]amino}ethyl)-N^3-(2-phenylethyl)-β-alaninamide bis-trifluoroacetic acid salt], the “β2 Int Act” value was 0.85.
